In patent US9833444B2 (priority 2013, dated 2017):
Read-outs that look alike come from different tables or passages of the source.

Experiments:
[1] = molecular target: recombinant toxin sphingomyelinase D (SMase D) (Loxosceles laeta, UniProt Q8I914); test: biochemical; details: for inhibition at 40 µM: read-out: inhibition of the hydrolytic activity of recombinant toxin on the SM substrate
[2] = tested on: venom of Loxosceles laeta; type: biochemical; details: for inhibition of the hydrolytic activity of the venom of L. laeta on the SM substrate: 40 µM
human red blood cells [3] = type: cell-based
human red blood cells [4] = type: cell-based; remark: listed apart in the source
human keratinocytes [5] = type: cell-based; details: compound 40 μM; flow cytometry
MMP-2 = type: cell-based, human
MMP-9 = type: cell-based, human
[6] = tested on: dermonecrotic lesions developed in rabbits; type: in vivo; details: for histopathological analysis of the skin of rabbits inoculated with the venom: rabbit, in vivo; for reduction of dermonecrotic injury, 24 hours after venom inoculation / inhibition of dermonecrotic injury, 48 hours / inhibition of dermonecrotic injury, 72 hours: rabbits; for reduction of dermonecrotic injury, 24 hours after venom inoculation: compound at three times IC50 (136.2 μM compound 5, 190.2 μM compound 6); for inhibition of dermonecrotic injury, 48 hours / inhibition of dermonecrotic injury, 72 hours: compound at three times IC50
ERK1/2 = test: Activation of MAPK ERK1/2 signaling pathway in keratinocytes induced by recombinant SMases D, ELISA; type: cell-based, human; details: compound 40 μM
human keratinocytes [7] = test: cells; type: cell-based; details: Keratinocyte, read-out: inhibition of superoxide production
TNF receptor = type: cell-based, human
TNF-α = type: cell-based, human
TGF-β1 = type: cell-based, human
[8] = Average inhibition of all activities tested (overall efficiency); details: average over all aspects analyzed
Description: Thus, taking into consideration all the aspects analyzed, compound 5 of the present invention is 61.1% efficient, while compound 6 of this invention is 54.1% efficient in relation to the mechanisms involved in the toxicity of SMases D in the development of loxoscelism.

[9] = molecular target: PLD of C. pseudotuberculosis (Corynebacterium pseudotuberculosis, UniProt P20626); type: biochemical
[10] = molecular target: SMases of Stahylococcus aureus (Staphylococcus aureus, UniProt P09978); test: Hydrolytic activity of SMase of Staphylococcus aureus on sphingomyelin; type: biochemical; details: compound 40 μM
human keratinocytes [11] = test: cells; details: Keratinocyte
[12] = read-out: viability of human keratinocytes treated with recombinant toxin
[13] = read-out: viability of human keratinocytes treated with venom of L. laeta

Sequence of recombinant toxin sphingomyelinase D (SMase D) (Q8I914 27-311 limits assumed): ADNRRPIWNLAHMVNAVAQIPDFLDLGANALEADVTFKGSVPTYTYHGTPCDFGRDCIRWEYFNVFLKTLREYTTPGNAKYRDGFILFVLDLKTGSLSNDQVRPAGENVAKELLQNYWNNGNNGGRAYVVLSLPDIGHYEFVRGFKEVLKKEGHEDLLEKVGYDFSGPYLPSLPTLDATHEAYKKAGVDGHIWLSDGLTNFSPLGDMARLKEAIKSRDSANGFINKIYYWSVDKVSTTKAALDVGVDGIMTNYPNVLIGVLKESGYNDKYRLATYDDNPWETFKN
Sequence of PLD of C. pseudotuberculosis (P20626 25-307 limits assumed): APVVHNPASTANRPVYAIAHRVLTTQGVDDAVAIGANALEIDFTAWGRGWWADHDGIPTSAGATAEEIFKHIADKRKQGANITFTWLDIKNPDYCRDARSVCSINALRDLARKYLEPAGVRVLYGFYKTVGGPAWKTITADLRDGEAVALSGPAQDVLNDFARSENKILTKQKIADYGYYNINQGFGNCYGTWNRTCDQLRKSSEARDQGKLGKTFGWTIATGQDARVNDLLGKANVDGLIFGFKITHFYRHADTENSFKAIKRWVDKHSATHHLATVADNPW
Sequence of SMases of Stahylococcus aureus (P09978 35-330 limits assumed): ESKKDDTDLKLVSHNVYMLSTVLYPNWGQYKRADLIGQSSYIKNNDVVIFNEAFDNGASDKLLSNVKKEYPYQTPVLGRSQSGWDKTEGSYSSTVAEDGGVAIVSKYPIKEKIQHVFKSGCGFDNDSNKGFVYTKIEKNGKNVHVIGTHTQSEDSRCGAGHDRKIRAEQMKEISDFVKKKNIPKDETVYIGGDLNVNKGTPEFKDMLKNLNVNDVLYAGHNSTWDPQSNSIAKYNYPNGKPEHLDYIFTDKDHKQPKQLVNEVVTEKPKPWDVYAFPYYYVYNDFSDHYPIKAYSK

Row | SMILES | IC50 [1] | inhibition mechanism [1] | reduction of the hydrolytic activity of recombinant toxin on substrate LPC [1] | inhibition at 40 µM [1] | reduction of the hydrolytic activity of the venom on substrate LPC [2] | inhibition of the hydrolytic activity of the venom of L. laeta on the SM substrate [2] | reduction of removal of glycophorin C from the surface of human red blood cells (human red blood cells [3]) | reduction of binding of the toxin to the red blood cell surface (human red blood cells [4]) | reduction of binding of SMases present in venom to the surface of human keratinocytes (human keratinocytes [5]) | reduction of binding of recombinant toxin to the surface of human keratinocytes (human keratinocytes [5]) | reduction of MMP-2 secretion (MMP-2) | inhibition of MMP-9 secretion (MMP-9) | histopathological analysis of the skin of rabbits inoculated with the venom [6] | reduction of dermonecrotic injury, 24 hours after venom inoculation [6] | inhibition of dermonecrotic injury, 48 hours [6] | inhibition of dermonecrotic injury, 72 hours [6] | reduction of phosphorylated ERK1/2 (ERK1/2) | inhibition at 40 µM (human keratinocytes [7]) | reduction of TNF-α production (TNF-α) | reduction of TGF-β1 production (TGF-β1) | further results
1 | Cc1[nH]c2ccccc2c1/C=N/NS(=O)(=O)c1ccc(Br)cc1 [Compound 5, 4-bromo-N-[(E)-(2-methyl-1H-indol-3-yl)methyleneamino]benzenosulfonamide] | 45.4 ± 1.2 µM | uncompetitive action inhibitors | 38.6% | 45.7% | 44.4% | 53% | 92.6% | 96.8% | 63.8% | 54.9% | 81% | completely inhibit | reduction in the disorganization of the collagen fibers in the dermis, absence of hemorrhage and inflammatory infiltrate | 61.8% | 60% | 56% | 65.8% | 70.7% | 73.9% | 88.3% | reversal of toxin-induced removal of the TNF receptor from the cell surface (TNF receptor): 27.7%; efficiency in relation to the mechanisms involved in the toxicity of SMases D (average inhibition of all activities tested) [8]: 61.1%; reduction of PLD activity of C. pseudotuberculosis on sphingomyelin [9]: about 70%; reduction of hydrolytic activity of SMase of Staphylococcus aureus [10]: efficiently reduced; viability at 10 µM (human keratinocytes [11]; [12]): 55.8%; viability at 10 µM (human keratinocytes [11]; [13]): 45.9%
2 | Cc1cc(OS(=O)(=O)c2ccc(Cl)cc2)cc2c1C(=O)C(=Cc1cccnc1)O2 [Compound 6, 4-methyl-3-oxo-2-(3-pyridylmethylene)benzo[3,4-b]furan-6-yl-4-chlorobenzenesulphonate] | 63.4 ± 1.1 µM | uncompetitive action inhibitors | 34% | 51% | 16% | 22.7% | 88.2% | 84% | 25.6% | 50.77% | 98.4% | completely inhibit | reduction in the disorganization of the collagen fibers in the dermis, absence of hemorrhage and inflammatory infiltrate | 36% | 45% | 49% | 80.2% | 92.7% | 61.1% | 89.2% | efficiency in relation to the mechanisms involved in the toxicity of SMases D (average inhibition of all activities tested) [8]: 54.1%; reduction of PLD activity of C. pseudotuberculosis on sphingomyelin [9]: about 68%; reduction of hydrolytic activity of SMase of Staphylococcus aureus [10]: efficiently reduced; viability at 10 µM (human keratinocytes [11]; [12]): 53.5%; viability at 10 µM (human keratinocytes [11]; [13]): 59.3%
